Laboratory results as given in US20040175773A1, “Screening method based on siah-numb interaction” (priority 2000, published 2004).
Where a SMILES comes first, the peptide text is derived from it. The star is where a group is joined. Cbz = O=C(OCc1ccccc1)*

Tests used:
[1] = test system: Notch1 nuclear translocation in U937 cells; conditions: 10 mM EDTA in PBS at 37° C. for 30 min; labelled 30 min (T=30) after removing the EDTA
Method: A. Stable U937 transfectants which were expressing either the control vector (panels 1 to 3) or Siah-1 (panels 4 to 7) were analysed using a confocal microscope for the endogenous immunofluorescence of Notch1. The cells were labelled with an antibody which recognized the cytoplasmic portion of human Notch1, followed by an FITC-conjugated secondary antibody. The Notch immunofluorescence analysis is related either to low magnification (panels 1 and 4) or to high magnification (panels 2, 3, 5, 6 and 7). […] The labelling with propidium iodide was included in order to better visualize the nuclear labelling of Notch1 (panels 3, 6 and 7). […] The bar represents a length of 5 μm.
Cells were incubated in 10 mM EDTA containing PBS at 37° C. for 30 min, and then washed and labelled with anti-Notch1 (intracellular) antibodies either immediately (T=0) or 30 min (T=30) after removing the EDTA. The cells were counterlabelled with propidium iodide in order to visualize the nucleus.

[2] = test system: quantity of Numb protein in 293T cells; experiment: Western blot of Numb protein in transfected 293T cells with or without proteasome inhibitor; assay type: cell-based, human; conditions: 293T cells cotransfected with Numb, Siah-1 +/- Mdm2; 50 μM MG132 for 6 hours; anti-Numb Western blot, FIG. 2B lanes 6, 7 and 8
Method: FIG. 2: Analysis of the effect of the in vivo interaction between Siah and Numb on the levels at which the proteins are expressed. FIG. 2.A. 293T cells were cotransfected with an empty expression vector (column 1) or expressing Numb (column 2), Siah-1 (column 3), Numb and Siah-1 (column 4), Numb and Mdm2 (column 5), and Numb, Siah-1 and Mdm2 (column 6). 48 hours after transfection, a Western blot analysis was carried out using an anti-Numb antibody. A control was also performed using an anti-GFP (green fluorescent protein) antibody as a loading standard on the gel. FIG. 2.B. The Western blot was analysed as previously described in the absence or presence of an inhibitor of the ubiquitin proteasome (MG 132). Without MG 132, the quantity of Numb protein decreases in the presence of Siah-1, with or without Mdm2 (lanes 2, 3 and 4). […]
The cell lysates were separated by SDS-PAGE gel electrophoresis and transferred to a nitrocellulose membrane (Biorad), with this being followed by a Western blot analysis using the Numb polyclonal antibody (Weizmann Institute, Ref. 3465, or reference N80220 from Transduction Laboratories) and the anti-GFP monoclonal antibody (Boehringer, Ref. 1814460) in order to verify standardization of the quantities which were loaded onto the gel. […]

Row | SMILES | nuclear translocation of Notch1 [1] | quantity of Numb protein in the presence of Siah-1, with or without Mdm2 [2]
1 | O=C(O)CN(CCN(CC(=O)O)CC(=O)O)CC(=O)O [EDTA] | positive Notch1 labelling in the nucleus | –
2 | CC(C)C[C@@H](C=O)NC(=O)[C@H](CC(C)C)NC(=O)[C@H](CC(C)C)NC(=O)OCc1ccccc1 [MG 132] (Cbz-Leu-Leu-Leu-aldehyde) | – | remains constant
